Measured values as given in patent US20210283163A1, “COMPOSITIONS AND METHODS FOR THE TREATMENT OF ACUTE AND CHRONIC PRURITIS” (Duke University, priority 2018, published 2021).

Experiments:
TRPV3 = target: T1, TRPV3 (Mus musculus, UniProt Q8K424); experiment: Whole-cell patch clamp in CHO cells transfected with mouse Trpv3 cDNA; format: cell-based; settings: miR-711 10 μM; carvacrol 300 μM
T1 construct: expressed in transfected cells; host or cells: CHO cells (ATCC CRL-9096), plasmid pcDNA3.1-mTrpv3, a gift from Korea University
T1 sequence (Q8K424 1-791): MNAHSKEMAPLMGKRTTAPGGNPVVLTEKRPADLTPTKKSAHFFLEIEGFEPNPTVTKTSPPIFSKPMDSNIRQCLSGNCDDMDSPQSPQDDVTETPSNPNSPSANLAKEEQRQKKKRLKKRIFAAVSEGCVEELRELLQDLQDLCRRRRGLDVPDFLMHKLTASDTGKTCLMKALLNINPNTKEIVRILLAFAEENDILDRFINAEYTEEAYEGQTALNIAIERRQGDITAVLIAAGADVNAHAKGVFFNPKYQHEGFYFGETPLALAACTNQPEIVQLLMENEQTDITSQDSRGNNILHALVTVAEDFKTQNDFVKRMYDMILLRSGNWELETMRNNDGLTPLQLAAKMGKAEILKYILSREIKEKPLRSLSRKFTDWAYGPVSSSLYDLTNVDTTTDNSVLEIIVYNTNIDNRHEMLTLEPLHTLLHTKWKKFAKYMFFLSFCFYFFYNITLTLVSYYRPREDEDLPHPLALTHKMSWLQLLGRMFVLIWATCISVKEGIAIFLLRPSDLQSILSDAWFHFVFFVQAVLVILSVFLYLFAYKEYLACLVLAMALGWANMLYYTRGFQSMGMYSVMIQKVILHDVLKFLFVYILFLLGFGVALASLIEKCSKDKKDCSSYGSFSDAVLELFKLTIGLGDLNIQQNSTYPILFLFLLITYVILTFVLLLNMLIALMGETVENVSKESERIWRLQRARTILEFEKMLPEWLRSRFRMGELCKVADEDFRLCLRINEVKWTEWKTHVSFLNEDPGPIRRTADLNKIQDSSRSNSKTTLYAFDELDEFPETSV
Protocol: Constructs. The cDNAs of mouse pcDNA3.1-Trpa1, pcDNA3.1-Trpv1, pcDNA3.1-Trpv2, pcDNA3.1-Trpv3, and pcDNA3.1-Trpv4 were kindly provided Dr. Sun Work Hwang from Korea University. Mouse Trpa1 cDNA was subcloned into pCGN-HA backbone (Addgene) using In-Fusion HD Cloning Kit (Clontech Laboratories, CA). Q5 Site-Directed Mutagenesis Kit was used to generate mTrpa1 mutant (M1-M13) based on pCGN-mTrpa1.
Cell Culture and Transfection. CD4^+ Myla cell line was cultured in RPMI 1640 media (GIBCO), supplemented with 2 mM Glutamine (GIBCO), 100 U/mL IL-2 (Sigma), 100 U/mL IL-4 (Sigma), and 10% human AB serum (Sigma). HuT 102 cell line was cultured in RPMI 1640 supplemented with pyruvate, HEPES, and 10% (v/v) fetal bovine serum (HyClone). HEK293-hTRPA1 stable cell line was cultured in MEM (GIBCO) containing 2 mM Glutamine, 4 μg/mL Blasticidin, 10% FBS (v/v). B16 and CHO cells were cultured in high glucose (4.5 g/L) Dulbecco's Modified Eagle's Medium (GIBCO) containing 10% (v/v) fetal bovine serum (GIBCO). Culture media were supplemented with 50 units/mL of penicillin and 50 μg/mL streptomycin, and cultures were maintained with 5% CO2 in 37° C. incubator. Transfection (2 μg cDNA) was performed with Lipofectamine™ 2000 Reagent (Invitrogen) at 80% confluency and the transfected cells were cultured in the same media for 48 hr before electrophysiological and biochemical studies. […]

mTRPA1 = target: T2, mTRPA1 (Mus musculus, UniProt Q8BLA8); experiment: Live cell labeling with Cy3-labeled oligos in cultured DRG neurons; format: binding; settings: 10 μM Cy3-labeled oligo, 15 min
T2 construct: endogenous in cells; host or cells: dissociated mouse DRG neurons in primary culture
Protocol: Live Cell Labeling and Immunocytochemistry in Mouse DRG Neurons. Disassociated DRG neurons were plated on Poly-D-Lysine coated coverslips and cultured in Neurobasal medium supplemented with B27 for 24 hr. Cells were incubated with 10 μM Cy3-labeled miR-711 or miR-711 (m6) in extracellular cell solution for 15 min at 37° C. with 5% CO2. Then the coverslips were washed and incubated with TRPA1 primary antibody (Alomone lab, rabbit, 1:100) at 4° C. for 1 hr. The cells on coverslips were incubated with secondary antibody conjugated to FITC (1:100; Jackson ImmunoResearch, West Grove, Pa.) and examined under a Leica SP5 inverted confocal microscope.

T2 sequence (Q8BLA8 whole entry): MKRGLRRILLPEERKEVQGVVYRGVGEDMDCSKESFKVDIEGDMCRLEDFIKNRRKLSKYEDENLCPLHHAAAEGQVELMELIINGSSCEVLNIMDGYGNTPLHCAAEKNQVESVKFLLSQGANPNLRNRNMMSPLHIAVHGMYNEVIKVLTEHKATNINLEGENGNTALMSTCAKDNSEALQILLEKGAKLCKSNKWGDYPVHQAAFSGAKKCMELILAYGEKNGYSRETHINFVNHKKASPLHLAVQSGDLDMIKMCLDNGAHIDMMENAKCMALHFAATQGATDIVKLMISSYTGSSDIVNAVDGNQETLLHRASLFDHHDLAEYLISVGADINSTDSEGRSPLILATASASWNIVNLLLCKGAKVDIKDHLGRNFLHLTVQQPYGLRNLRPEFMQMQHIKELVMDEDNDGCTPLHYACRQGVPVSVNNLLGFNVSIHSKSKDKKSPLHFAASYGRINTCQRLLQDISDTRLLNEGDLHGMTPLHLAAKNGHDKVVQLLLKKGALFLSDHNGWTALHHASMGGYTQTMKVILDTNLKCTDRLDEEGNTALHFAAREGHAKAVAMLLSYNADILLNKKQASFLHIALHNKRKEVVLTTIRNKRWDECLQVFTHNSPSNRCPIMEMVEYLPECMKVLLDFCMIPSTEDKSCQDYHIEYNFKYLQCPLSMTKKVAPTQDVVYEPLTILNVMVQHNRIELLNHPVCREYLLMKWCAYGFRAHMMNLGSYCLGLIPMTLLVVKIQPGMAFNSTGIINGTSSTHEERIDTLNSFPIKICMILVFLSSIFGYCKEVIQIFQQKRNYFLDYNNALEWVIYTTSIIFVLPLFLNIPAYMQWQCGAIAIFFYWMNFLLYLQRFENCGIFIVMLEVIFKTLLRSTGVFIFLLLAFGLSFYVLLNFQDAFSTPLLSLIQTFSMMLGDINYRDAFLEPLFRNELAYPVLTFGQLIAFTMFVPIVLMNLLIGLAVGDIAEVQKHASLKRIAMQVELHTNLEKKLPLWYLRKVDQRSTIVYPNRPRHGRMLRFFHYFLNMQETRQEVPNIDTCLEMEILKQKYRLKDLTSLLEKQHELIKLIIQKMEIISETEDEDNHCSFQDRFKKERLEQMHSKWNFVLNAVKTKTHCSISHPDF

Compound	inward currents (TRPV3)	binding to TRPA1 on the cell surface of DRG neurons (mTRPA1)
Cc1ccc(C(C)C)cc1O [carvacrol]	inward currents induced	–
Cy3-labeled miR-711: mmu-miR-711-cy3: gggacccggggagagauguaag-cy3 (SEQ ID NO: 20) (GGGACCCGGGGAGAGAUGUAAG; Cy3 label at 3' end, RNA chemistry otherwise not given here, further chemistry not given here)	–	binds to TRPA1 on the cell surface
